pKi: −log10 of the molar value. Counter-ions that a name gives are not always drawn.
Key:
Carbonic anhydrase 1 = Carbonic anhydrase 1 (Homo sapiens, UniProt P00915); experiment: Esterase Activity Assay; settings: pH 7.4; 25 °C
Experimental: (§1) CA activity was assayed by following the change in absorbance at 348 nm of 4-nitrophenylacetate (NPA) to 4-nitrophenylate ion over a period of 3 min at 25 °C using a spectrophotometer (Shimadzu, UVmini-1240 UV-VIS spectrophotometer) according to the method described by Verpoorte et al.37 The enzymatic reaction contained 1.4mL 0.05M Tris-SO4 buffer (pH 7.4), 1mL 3mM 4-NPA, 0.5mL H2O and 0.1mL enzyme solution (total volume, 3.0 mL). A reference measurement was obtained bypreparing the mixture without the enzyme solution. All measurements were recorded in triplicate.

Carbonic anhydrase 2 = Carbonic anhydrase 2 (Homo sapiens, UniProt P00918); experiment: Esterase Activity Assay; settings: pH 7.4; 25 °C
Experimental: as §1

Chain of Carbonic anhydrase 1 (P00915 whole entry): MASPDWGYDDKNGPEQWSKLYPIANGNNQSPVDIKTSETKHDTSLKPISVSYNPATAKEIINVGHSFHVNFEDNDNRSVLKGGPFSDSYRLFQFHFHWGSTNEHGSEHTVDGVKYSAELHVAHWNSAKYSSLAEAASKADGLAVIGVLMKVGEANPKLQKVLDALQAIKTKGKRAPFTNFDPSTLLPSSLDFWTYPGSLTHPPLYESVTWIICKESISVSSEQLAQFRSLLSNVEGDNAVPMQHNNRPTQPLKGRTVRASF

Row | pKi (Carbonic anhydrase 1) | pKi (Carbonic anhydrase 2) | Compound
1 | 4.17 | 4.13 | COc1ccc(C(N)c2cccc(OC)c2OC)cc1OC (centres undefined) [(2,3-Dimethoxyphenyl)(3,4-dimethoxyphenyl)methanamine hydrochloride (25)]
2 | 4.44 | 4.46 | COc1ccc(C(N)c2ccc(OC)c(OC)c2)c(OC)c1 (centres undefined) [(2,4-Dimethoxyphenyl)(3,4-dimethoxyphenyl)methanamine hydrochloride (23)]
3 | 4.40 | 4.32 | COc1ccc(C(N)c2cc(OC)c(OC)cc2C)cc1OC (centres undefined) [(4,5-Dimethoxy-2-methylphenyl)(3,4-dimethoxyphenyl)methanamine hydrochloride (24)]
4 | 5.43 | 5.03 | COc1ccc(C(NS(C)(=O)=O)c2cccc(OC)c2OC)cc1OC (centres undefined) [N-((2,3-dimethoxyphenyl)(3,4-dimethoxyphenyl)methyl)methanesulfonamide (28)]
5 | 4.31 | 4.72 | COc1ccc(C(NS(C)(=O)=O)c2cc(OC)c(OC)cc2C)cc1OC (centres undefined) [N-((4,5-dimethoxy-2-methylphenyl)(3,4-dimethoxyphenyl)methyl)methane sulfonamide (27)]
6 | 4.59 | 4.74 | COc1ccc(C(NS(C)(=O)=O)c2ccc(OC)c(OC)c2)cc1OC [N-(bis(3,4-dimethoxyphenyl)methyl)methanesulfonamide (26)]
7 | 4.86 | 4.81 | COc1ccc(C(N)c2ccc(OC)c(OC)c2)cc1OC [bis(3,4-dimethoxyphenyl)methanamine hydrochloride (22)]

Source: BindingDB's records for doi:10.3109/14756366.2012.763163 (Atatürk University, 2014)
